Test results: the supplement of paper PMC9386025

Columns and labels:
Test in all cases: drug sensitivity score (DSS) (DSS (dimensionless)); higher = more sensitive (stronger drug response)
JHOS2 = test system: JHOS2
Procedure, shortened: (§1)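 Cells, either patient-derived cultures or ovarian cancer cell lines given 100 ng/ml doxycycline for no less than three days to induce shRNA, went into 384-well plates at 1 000 – 1 500 per well over drugs pre-plated in five concentrations across a 10,000-fold range. The plates were held for three days at 37 °C with 5.0 % CO2. Cell viability was then taken from CellTiter-Glo luminescence on a PHERAstar FS. For each drug, a drug sensitivity score from its dose-response curve was obtained by a method described earlier.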

FIMM-PDC4 = patient-derived ovarian cancer cells; conditions: genetic perturbation: none (patient-derived cell culture)
Procedure, shortened: as §1

OVSAHO = test system: OVSAHO
Procedure, shortened: as §1

FIMM-PDC5 = patient-derived ovarian cancer cells; conditions: genetic perturbation: none (patient-derived cell culture)
Procedure, shortened: as §1

FIMM-PDC1 = patient-derived ovarian cancer cells; conditions: genetic perturbation: none (patient-derived cell culture)
Procedure, shortened: as §1

FIMM-PDC3 = patient-derived ovarian cancer cells; conditions: genetic perturbation: none (patient-derived cell culture)
Procedure, shortened: as §1

Kuramochi = test system: Kuramochi
Procedure, shortened: as §1

FIMM-PDC7 = patient-derived ovarian cancer cells; conditions: genetic perturbation: none (patient-derived cell culture)
Procedure, shortened: as §1

FIMM-PDC6 = patient-derived ovarian cancer cells; conditions: genetic perturbation: none (patient-derived cell culture)
Procedure, shortened: as §1

[1] = genetic perturbation: DOX-induced PTK7 shRNA knockdown
[2] = genetic perturbation: DOX-induced control shRNA

SMILES: CC[C@@H]1C(=O)N(C)c2cnc(Nc3ccc(C(=O)NC4CCN(C)CC4)cc3OC)nc2N1C1CCCC1 [BI 2536]
- drug sensitivity score (JHOS2; [1]): 16
- drug sensitivity score (JHOS2; [2]): 4.6
- drug sensitivity score (FIMM-PDC4): 6.1
- drug sensitivity score (OVSAHO; [1]): 5.9
- drug sensitivity score (OVSAHO; [2]): 8.8
- drug sensitivity score (FIMM-PDC5): 19.4
- drug sensitivity score (FIMM-PDC1): 6.05
- drug sensitivity score (FIMM-PDC3): 7.5
- drug sensitivity score (Kuramochi; [1]): 10.7
- drug sensitivity score (Kuramochi; [2]): 3
- drug sensitivity score (FIMM-PDC7): 3.5
- drug sensitivity score (FIMM-PDC6): 0.1

SMILES: COc1c(C)cnc(Cn2cnc3c(Cl)nc(N)nc32)c1C [BIIB021]
- drug sensitivity score (JHOS2; [1]): 16.5
- drug sensitivity score (JHOS2; [2]): 12.6
- drug sensitivity score (FIMM-PDC4): 18.8
- drug sensitivity score (OVSAHO; [1]): < 0
- drug sensitivity score (OVSAHO; [2]): 8.1
- drug sensitivity score (FIMM-PDC5): 18
- drug sensitivity score (FIMM-PDC1): 12.8
- drug sensitivity score (FIMM-PDC3): 12.1
- drug sensitivity score (Kuramochi; [1]): 10.4
- drug sensitivity score (Kuramochi; [2]): 0.9
- drug sensitivity score (FIMM-PDC7): 14.6
- drug sensitivity score (FIMM-PDC6): 13.5

SMILES: O=C(Nc1cccc(Nc2ncc(Br)c(NCCc3cnc[nH]3)n2)c1)N1CCCC1 [BX-912]
- drug sensitivity score (JHOS2; [1]): 5.5
- drug sensitivity score (JHOS2; [2]): 2.4
- drug sensitivity score (FIMM-PDC4): 3.9
- drug sensitivity score (OVSAHO; [1]): 3.8
- drug sensitivity score (OVSAHO; [2]): 2.2
- drug sensitivity score (FIMM-PDC5): 6.9
- drug sensitivity score (FIMM-PDC1): 2.85
- drug sensitivity score (FIMM-PDC3): 1.2
- drug sensitivity score (Kuramochi; [1]): 2.35
- drug sensitivity score (Kuramochi; [2]): 3.7
- drug sensitivity score (FIMM-PDC7): 9.2
- drug sensitivity score (FIMM-PDC6): 2.2

SMILES: O=C(/C=C/c1cccc(S(=O)(=O)Nc2ccccc2)c1)NO [Belinostat]
- drug sensitivity score (JHOS2; [1]): 13
- drug sensitivity score (JHOS2; [2]): 9.4
- drug sensitivity score (FIMM-PDC4): 5.5
- drug sensitivity score (OVSAHO; [1]): 15.2
- drug sensitivity score (OVSAHO; [2]): 9.7
- drug sensitivity score (FIMM-PDC5): 12.3
- drug sensitivity score (FIMM-PDC1): 9.65
- drug sensitivity score (FIMM-PDC3): 14.1
- drug sensitivity score (Kuramochi; [1]): 17.6
- drug sensitivity score (Kuramochi; [2]): 7.6
- drug sensitivity score (FIMM-PDC7): 10
- drug sensitivity score (FIMM-PDC6): 13

SMILES: Cc1sc2c(c1C)C(c1ccc(Cl)cc1)=N[C@@H](CC(=O)Nc1ccc(O)cc1)c1nnc(C)n1-2 [Birabresib]
- drug sensitivity score (JHOS2; [1]): 9.6
- drug sensitivity score (JHOS2; [2]): 8.1
- drug sensitivity score (FIMM-PDC4): 5.6
- drug sensitivity score (OVSAHO; [1]): 7.3
- drug sensitivity score (OVSAHO; [2]): 13.4
- drug sensitivity score (FIMM-PDC5): 12.7
- drug sensitivity score (FIMM-PDC1): 4.2
- drug sensitivity score (FIMM-PDC3): 4.3
- drug sensitivity score (Kuramochi; [1]): 13.9
- drug sensitivity score (Kuramochi; [2]): 4.8
- drug sensitivity score (FIMM-PDC7): 8.3
- drug sensitivity score (FIMM-PDC6): 3.7

SMILES: CC[C@H](NC(=O)[C@H](C)NC)C(=O)N1C[C@@H](O)C[C@H]1Cc1c(-c2[nH]c3cc(F)ccc3c2C[C@@H]2C[C@H](O)CN2C(=O)[C@H](CC)NC(=O)[C@H](C)NC)[nH]c2cc(F)ccc12 [Birinapant]
- drug sensitivity score (JHOS2; [1]): 17.4
- drug sensitivity score (JHOS2; [2]): 16.7
- drug sensitivity score (FIMM-PDC4): < 0
- drug sensitivity score (OVSAHO; [1]): 5.7
- drug sensitivity score (OVSAHO; [2]): 2.1
- drug sensitivity score (FIMM-PDC5): 0.6
- drug sensitivity score (FIMM-PDC1): 6.4
- drug sensitivity score (FIMM-PDC3): 11.7
- drug sensitivity score (Kuramochi; [1]): 3.9
- drug sensitivity score (Kuramochi; [2]): 3.6
- drug sensitivity score (FIMM-PDC7): < 0
- drug sensitivity score (FIMM-PDC6): 4.1

SMILES: CC(C)C[C@H](NC(=O)[C@H](Cc1ccccc1)NC(=O)c1cnccn1)B(O)O [Bortezomib]
- drug sensitivity score (JHOS2; [1]): 25.7
- drug sensitivity score (JHOS2; [2]): 23.6
- drug sensitivity score (FIMM-PDC4): 28.8
- drug sensitivity score (OVSAHO; [1]): 24.2
- drug sensitivity score (OVSAHO; [2]): 11.6
- drug sensitivity score (FIMM-PDC5): 27.4
- drug sensitivity score (FIMM-PDC1): 29.1
- drug sensitivity score (FIMM-PDC3): 30.6
- drug sensitivity score (Kuramochi; [1]): 16.3
- drug sensitivity score (Kuramochi; [2]): 20.1
- drug sensitivity score (FIMM-PDC7): 31.9
- drug sensitivity score (FIMM-PDC6): 31.8

SMILES: COc1cc(Nc2c(C#N)cnc3cc(OCCCN4CCN(C)CC4)c(OC)cc23)c(Cl)cc1Cl [Bosutinib]
- drug sensitivity score (JHOS2; [1]): 9.3
- drug sensitivity score (JHOS2; [2]): 10.9
- drug sensitivity score (FIMM-PDC4): 13.7
- drug sensitivity score (OVSAHO; [1]): 12.1
- drug sensitivity score (OVSAHO; [2]): 8.7
- drug sensitivity score (FIMM-PDC5): 14.3
- drug sensitivity score (FIMM-PDC1): 7.4
- drug sensitivity score (FIMM-PDC3): 10.5
- drug sensitivity score (Kuramochi; [1]): 10.6
- drug sensitivity score (Kuramochi; [2]): 6.4
- drug sensitivity score (FIMM-PDC7): 6.5
- drug sensitivity score (FIMM-PDC6): 12.3

SMILES: Nc1cc(C(F)(F)F)c(-c2cc(N3CCOCC3)nc(N3CCOCC3)n2)cn1 [Buparlisib]
- drug sensitivity score (JHOS2; [1]): 6.4
- drug sensitivity score (JHOS2; [2]): 4.6
- drug sensitivity score (FIMM-PDC4): 9.7
- drug sensitivity score (OVSAHO; [1]): 7.2
- drug sensitivity score (OVSAHO; [2]): 6.6
- drug sensitivity score (FIMM-PDC5): 12.2
- drug sensitivity score (FIMM-PDC1): 5.4
- drug sensitivity score (FIMM-PDC3): 7.1
- drug sensitivity score (Kuramochi; [1]): 7.25
- drug sensitivity score (Kuramochi; [2]): 4.6
- drug sensitivity score (FIMM-PDC7): 10.8
- drug sensitivity score (FIMM-PDC6): 7.8

SMILES: CCN1C(=O)CNc2ncc(-c3ccc(-c4nc[nH]n4)nc3C)nc21 [CC-115]
- drug sensitivity score (JHOS2; [1]): 6.4
- drug sensitivity score (JHOS2; [2]): 7.1
- drug sensitivity score (FIMM-PDC4): 10
- drug sensitivity score (OVSAHO; [1]): 10
- drug sensitivity score (OVSAHO; [2]): 7.1
- drug sensitivity score (FIMM-PDC5): 14
- drug sensitivity score (FIMM-PDC1): 5.8
- drug sensitivity score (FIMM-PDC3): 6.6
- drug sensitivity score (Kuramochi; [1]): 6.85
- drug sensitivity score (Kuramochi; [2]): 7.1
- drug sensitivity score (FIMM-PDC7): 17.4
- drug sensitivity score (FIMM-PDC6): 9.5

SMILES: Cc1noc2c1-c1ccccc1C(c1ccc(Cl)cc1)=N[C@H]2CC(N)=O [CPI-0610]
- drug sensitivity score (JHOS2; [1]): 5.9
- drug sensitivity score (JHOS2; [2]): 4.2
- drug sensitivity score (FIMM-PDC4): 3.9
- drug sensitivity score (OVSAHO; [1]): 7
- drug sensitivity score (OVSAHO; [2]): 9.5
- drug sensitivity score (FIMM-PDC5): 8.7
- drug sensitivity score (FIMM-PDC1): 2.1
- drug sensitivity score (FIMM-PDC3): 3.7
- drug sensitivity score (Kuramochi; [1]): 10.5
- drug sensitivity score (Kuramochi; [2]): 6.1
- drug sensitivity score (FIMM-PDC7): 5.5
- drug sensitivity score (FIMM-PDC6): 3.1

SMILES: CN(C)c1cc2c(cc1Sc1nc3c(N)nccc3n1CCNCC(C)(C)C)OCO2 [CUDC-305]
- drug sensitivity score (JHOS2; [1]): 11.5
- drug sensitivity score (JHOS2; [2]): 9.9
- drug sensitivity score (FIMM-PDC4): 15.8
- drug sensitivity score (OVSAHO; [1]): < 0
- drug sensitivity score (OVSAHO; [2]): 6.3
- drug sensitivity score (FIMM-PDC5): 12.8
- drug sensitivity score (FIMM-PDC1): 11.5
- drug sensitivity score (FIMM-PDC3): 9.8
- drug sensitivity score (Kuramochi; [1]): 7.3
- drug sensitivity score (Kuramochi; [2]): 0.8
- drug sensitivity score (FIMM-PDC7): 12.7
- drug sensitivity score (FIMM-PDC6): 11.6

SMILES: COc1ccc(-c2nc(N3CCOCC3)c3sc(CN(C)c4ncc(C(=O)NO)cn4)cc3n2)cn1 [CUDC-907]
- drug sensitivity score (JHOS2; [1]): 31.3
- drug sensitivity score (JHOS2; [2]): 28.1
- drug sensitivity score (FIMM-PDC4): 22.7
- drug sensitivity score (OVSAHO; [1]): 27.8
- drug sensitivity score (OVSAHO; [2]): 31
- drug sensitivity score (FIMM-PDC5): 34.5
- drug sensitivity score (FIMM-PDC1): 29.9
- drug sensitivity score (FIMM-PDC3): 34.3
- drug sensitivity score (Kuramochi; [1]): 33.1
- drug sensitivity score (Kuramochi; [2]): 27.7
- drug sensitivity score (FIMM-PDC7): 25.9
- drug sensitivity score (FIMM-PDC6): 29.9

SMILES: CO[C@H]1C(=O)[C@]2(C)[C@@H](OC)C[C@H]3OC[C@@]3(OC(C)=O)[C@H]2[C@H](OC(=O)c2ccccc2)[C@]2(O)C[C@H](OC(=O)[C@H](O)[C@@H](NC(=O)OC(C)(C)C)c3ccccc3)C(C)=C1C2(C)C [Cabazitaxel]
- drug sensitivity score (JHOS2; [1]): 20.4
- drug sensitivity score (JHOS2; [2]): 13.8
- drug sensitivity score (FIMM-PDC4): 23.9
- drug sensitivity score (OVSAHO; [1]): 12.3
- drug sensitivity score (OVSAHO; [2]): 15.3
- drug sensitivity score (FIMM-PDC5): 23.5
- drug sensitivity score (FIMM-PDC1): 17.4
- drug sensitivity score (FIMM-PDC3): 21.9
- drug sensitivity score (Kuramochi; [1]): 19.6
- drug sensitivity score (Kuramochi; [2]): 3.8
- drug sensitivity score (FIMM-PDC7): 12.7
- drug sensitivity score (FIMM-PDC6): 8.7

SMILES: C=CC(=O)Nc1cc2c(Nc3ccc(F)c(Cl)c3)ncnc2cc1OCCCN1CCOCC1 [Canertinib]
- drug sensitivity score (JHOS2; [1]): 8.1
- drug sensitivity score (JHOS2; [2]): 7.4
- drug sensitivity score (FIMM-PDC4): 20.4
- drug sensitivity score (OVSAHO; [1]): 8.2
- drug sensitivity score (OVSAHO; [2]): 7.6
- drug sensitivity score (FIMM-PDC5): 27.5
- drug sensitivity score (FIMM-PDC1): 7.4
- drug sensitivity score (FIMM-PDC3): 15.7
- drug sensitivity score (Kuramochi; [1]): 8.9
- drug sensitivity score (Kuramochi; [2]): 8.6
- drug sensitivity score (FIMM-PDC7): 12.1
- drug sensitivity score (FIMM-PDC6): 20.8

SMILES: O=C(O)C1(C(=O)O)CCC1.[NH2-].[NH2-].[Pt+2] [Carboplatin]
- drug sensitivity score (JHOS2; [1]): 7.6
- drug sensitivity score (JHOS2; [2]): 5.3
- drug sensitivity score (FIMM-PDC4): 3.2
- drug sensitivity score (OVSAHO; [1]): 8.7
- drug sensitivity score (OVSAHO; [2]): 2.7
- drug sensitivity score (FIMM-PDC5): 3.8
- drug sensitivity score (FIMM-PDC1): 2.55
- drug sensitivity score (FIMM-PDC3): 16.2
- drug sensitivity score (Kuramochi; [1]): 4.4
- drug sensitivity score (Kuramochi; [2]): 4.7
- drug sensitivity score (FIMM-PDC7): 2.4
- drug sensitivity score (FIMM-PDC6): 2.8

SMILES: CC(C)C[C@H](NC(=O)[C@H](CCc1ccccc1)NC(=O)CN1CCOCC1)C(=O)N[C@@H](Cc1ccccc1)C(=O)N[C@@H](CC(C)C)C(=O)[C@@]1(C)CO1 [Carfilzomib]
- drug sensitivity score (JHOS2; [1]): 25.2
- drug sensitivity score (JHOS2; [2]): 23.7
- drug sensitivity score (FIMM-PDC4): 22.2
- drug sensitivity score (OVSAHO; [1]): 24.9
- drug sensitivity score (OVSAHO; [2]): 20.5
- drug sensitivity score (FIMM-PDC5): 23.6
- drug sensitivity score (FIMM-PDC1): 26.6
- drug sensitivity score (FIMM-PDC3): 28.3
- drug sensitivity score (Kuramochi; [1]): 21.9
- drug sensitivity score (Kuramochi; [2]): 25
- drug sensitivity score (FIMM-PDC7): 26.1
- drug sensitivity score (FIMM-PDC6): 29.3
